Experimental findings from US8680012B2, “4-phenyl-pyrane-3,5-diones,4-phenyl-thiopyrane-3,6-diones and cyclohexanetriones as novel herbicides” (Syngenta Crop Protection LLC, priority 2006, dated 2014) are described below.

Common to all, as to assay type: in vivo
Test [1] concerns Echinochloa crus-galli (ECHCG). The experiment in a line: Example B pre-emergence herbicidal activity, glasshouse pot test. The note with it: 312 h, rate 250 g/ha, evaluated after 13 days, read-out: Pre-emergence activity ECHCG (100=total damage to plant; 0=no damage to plant). The essentials:
(§1)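 Spray application in 50:50 acetone/water with 0.5% Tween 20, pre-emergence at 1 day or post-emergence at 8 days after sowing. Evaluated visually at 13 days on a 0–100 damage scale.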

The subject of test [2] is Alopecurus myosuroides (ALOMY). The description is as above. To be noted: 312 h, rate 250 g/ha, evaluated after 13 days, read-out: Pre-emergence activity ALOMY (100=total damage to plant; 0=no damage to plant). A digest of the protocol:
as §1

Test [3] concerns Avena fatua (AVEFA). Described as above. The note with it: 312 h, rate 250 g/ha, evaluated after 13 days, read-out: Pre-emergence activity AVEFA (100=total damage to plant; 0=no damage to plant). A digest of the protocol:
as §1

In test [4] the test system is Setaria faberi (SETFA). Described as above. To be noted: 312 h, rate 250 g/ha, evaluated after 13 days, read-out: Pre-emergence activity SETFA (100=total damage to plant; 0=no damage to plant). A digest of the protocol: as §1
For test [5], the system named is Amaranthus retroflexus (AMARE). The test is described as above. The note with it: 312 h, rate 250 g/ha, evaluated after 13 days, read-out: Pre-emergence activity AMARE (100=total damage to plant; 0=no damage to plant). The essentials: as §1
In test [6] the test system is Echinochloa crus-galli (ECHCG). The experiment in a line: Example B post-emergence herbicidal activity, glasshouse pot test. To be noted: 312 h, rate 250 g/ha, evaluated after 13 days, read-out: Post-emergence activity ECHCG (100=total damage to plant; 0=no damage to plant). A digest of the protocol: as §1
Test [7] relates to Alopecurus myosuroides (ALOMY). The description is as above. To be noted: 312 h, rate 250 g/ha, evaluated after 13 days, read-out: Post-emergence activity ALOMY (100=total damage to plant; 0=no damage to plant). The essentials: as §1
In test [8] the test system is Avena fatua (AVEFA). The test is described as above. The note with it: 312 h, rate 250 g/ha, evaluated after 13 days, read-out: Post-emergence activity AVEFA (100=total damage to plant; 0=no damage to plant). The essentials: as §1
Test [9] deals with Setaria faberi (SETFA). Described as above. The note with it: 312 h, rate 250 g/ha, evaluated after 13 days, read-out: Post-emergence activity SETFA (100=total damage to plant; 0=no damage to plant). The essentials:
as §1

Test [10] relates to Amaranthus retroflexus (AMARE). Described as above. To be noted: 312 h, rate 250 g/ha, evaluated after 13 days, read-out: Post-emergence activity AMARE (100=total damage to plant; 0=no damage to plant). A digest of the protocol: as §1

Take `Cc1ccc(-c2ccc(Cl)cc2Cl)cc1C1=C(O)C(C)(C)S(=O)(=O)C(C)(C)C1=O` [Compound C-8]: the pest or weed control at 250 g/ha in test [1] turned out to be 0%; in test [2], 0%; in the test with Avena fatua (AVEFA) [3] it was 0%; in the test with Setaria faberi (SETFA) [4] it was 0%; in test [5], 0%; in test [6] it was 60%. Also, the pest or weed control at 250 g/ha in [7] is 20%; in the test on Avena fatua (AVEFA) [8], 0%; with Setaria faberi (SETFA) [9] it was 40%; in [10], 0%.
Take `CCc1ccc(-c2ccc(Cl)c(Cl)c2)cc1C1=C(O)[C@H]2CC[C@H](O2)C1=O` [Compound A-132]: the pest or weed control at 250 g/ha was 0% in test [1]; 0% in test [2]; 0% with Avena fatua (AVEFA) [3]; 0% in the test with Setaria faberi (SETFA) [4]; 0% in [5]; 70% in test [6]. In addition, the pest or weed control at 250 g/ha is 20% in [7], 30% in the test with Avena fatua (AVEFA) [8], 90% in the test with Setaria faberi (SETFA) [9] and 0% in test [10].
On to `CCc1ccc(-c2ccc(Cl)c(C(F)(F)F)c2)cc1C1=C(O)C(C)(C)OC(C)(C)C1=O` [Compound A-67], for which the pest or weed control at 250 g/ha in test [1] was determined as 60%; in test [2] it was 40%; with Avena fatua (AVEFA) [3], 0%; in the test on Setaria faberi (SETFA) [4], 90%; in test [5], 0%; in test [6], 100%. The pest or weed control at 250 g/ha in [7] was found to be 80%; with Avena fatua (AVEFA) [8] it was 80%; in the test on Setaria faberi (SETFA) [9] it was 30%; in test [10], 100%.
Take `CCc1ccc(-c2ccc(Cl)c(F)c2)cc1C1=C(O)C(C)(C)S(=O)(=O)C(C)(C)C1=O` [Compound C-13]: the pest or weed control at 250 g/ha turned out to be 30% in [1]; 20% in test [2]; 90% in the test with Avena fatua (AVEFA) [3]; 80% with Setaria faberi (SETFA) [4]; 0% in [5]; 100% in test [6]. Besides, the pest or weed control at 250 g/ha in test [7] amounted to 80%; in the test on Avena fatua (AVEFA) [8], 90%; in the test with Setaria faberi (SETFA) [9], 100%; in [10], 20%.
`CCc1ccc(-c2ccc(Cl)c(OC)c2)cc1C1=C(O)C(C)(C)OC(C)(C)C1=O` [Compound A-135]: the pest or weed control at 250 g/ha was 100% in test [1]; 80% in test [2]; 100% in the test with Avena fatua (AVEFA) [3]; 100% in the test on Setaria faberi (SETFA) [4]; 0% in test [5]; 100% in [6]. The pest or weed control at 250 g/ha came to 100% in test [7], 100% with Avena fatua (AVEFA) [8], 100% in the test on Setaria faberi (SETFA) [9] and 0% in [10].
With `Cc1ccc(-c2ccc(Cl)cc2Cl)cc1C1=C(O)C(C)(C)[S+]([O-])C(C)(C)C1=O` (single isomer, unassigned) [Compound C-7], the pest or weed control at 250 g/ha stood at 0% in test [1]; 0% in test [2]; 0% in the test on Avena fatua (AVEFA) [3]; 0% in the test with Setaria faberi (SETFA) [4]; 0% in test [5]; 60% in test [6]. For the same molecule, the pest or weed control at 250 g/ha in [7] came out at 20%; in the test on Avena fatua (AVEFA) [8], 0%; in the test on Setaria faberi (SETFA) [9], 30%; in test [10] it was 0%.
For `CCc1ccc(-c2c(Cl)cc(Cl)cc2Cl)cc1C1=C(O)C(C)(C)OC(C)(C)C1=O` [Compound A-74], the pest or weed control at 250 g/ha in test [1] came to 80%; in test [2], 20%; in the test with Avena fatua (AVEFA) [3], 0%; in the test with Setaria faberi (SETFA) [4], 50%; in test [5] it was 10%; in test [6] it was 90%. The pest or weed control at 250 g/ha in [7] was 0%; with Avena fatua (AVEFA) [8], 0%; with Setaria faberi (SETFA) [9] it was 90%; in [10], 70%.
`CCc1ccc(-c2ccc(Cl)cc2F)cc1C1=C(O)C(C)(C)OC(C)(C)C1=O` [Compound A-66]: the pest or weed control at 250 g/ha in test [1] was 60%; in [2], 0%; in the test on Avena fatua (AVEFA) [3] it was 40%; in the test with Setaria faberi (SETFA) [4], 50%; in test [5], 0%; in [6], 100%. Further, the pest or weed control at 250 g/ha in test [7] worked out at 20%; with Avena fatua (AVEFA) [8], 30%; in the test on Setaria faberi (SETFA) [9] it was 100%; in test [10] it was 10%.
For `CCc1ccc(-c2ccc(Cl)cc2Cl)cc1C1=C(O)C(C)(C)S(=O)(=O)C(C)(C)C1=O` [Compound C-11], the pest or weed control at 250 g/ha came to 0% in test [1]; 0% in [2]; 80% in the test with Avena fatua (AVEFA) [3]; 0% in the test with Setaria faberi (SETFA) [4]; 0% in test [5]; 80% in test [6]. The pest or weed control at 250 g/ha came out at 70% in test [7], 60% in the test on Avena fatua (AVEFA) [8], 30% in the test with Setaria faberi (SETFA) [9] and 20% in test [10].
With `CCOC[C@]12CC[C@H](O1)C(=O)C(c1cc(-c3ccc(Cl)c(Cl)c3)ccc1CC)=C2O` (single isomer, unassigned) [Compound A-129], the pest or weed control at 250 g/ha is 40% in test [1]; 20% in test [2]; 30% with Avena fatua (AVEFA) [3]; 90% with Setaria faberi (SETFA) [4]; 0% in test [5]; 90% in [6]. The pest or weed control at 250 g/ha in [7] was 70%; in the test with Avena fatua (AVEFA) [8], 80%; with Setaria faberi (SETFA) [9], 80%; in [10] it was 0%.
As for `CCc1ccc(-c2ccc(Cl)cc2)cc1C1=C(O)[C@]2(C)O[C@@H](CC2COC)C1=O` (stereo partly drawn) [Compound A-122], the pest or weed control at 250 g/ha in test [1] stood at 90%; in test [2] it was 40%; with Avena fatua (AVEFA) [3], 100%; with Setaria faberi (SETFA) [4], 100%; in [5] it was 0%; in [6], 100%. The pest or weed control at 250 g/ha came to 80% in [7], 50% in the test with Avena fatua (AVEFA) [8], 100% in the test on Setaria faberi (SETFA) [9] and 40% in [10].
Consider `CCc1ccc(-c2ccc(Cl)cc2Cl)cc1C1=C(O)[C@@]2(C)CC[C@H](O2)C1=O` (single isomer, unassigned) [Compound A-128], for which the pest or weed control at 250 g/ha in test [1] came to 70%; in test [2] it was 40%; in the test with Avena fatua (AVEFA) [3], 80%; in the test with Setaria faberi (SETFA) [4], 90%; in [5], 0%; in [6], 100%. For the same molecule, the pest or weed control at 250 g/ha in [7] is 80%; in the test on Avena fatua (AVEFA) [8] it was 90%; in the test with Setaria faberi (SETFA) [9], 100%; in test [10], 0%.
